Results taken from patent US10405547B2, “Substituted cyclic amides as herbicides” (FMC Corporation, priority 2015, dated 2019).

How the values were obtained:
Assay type in all cases: in vivo
[1] = system: foxtail, giant (Setaria faberii); test: Test A preemergence, giant foxtail; conditions: 0 to 100 scale (0 no effect, 100 complete control)
Summary of the method: (§1)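 Greenhouse test: compounds in solvent with surfactant sprayed onto loam–sand soil after planting (preemergence) or onto plants 2-10 cm at the one- to two-leaf stage (postemergence). Injury visually rated versus untreated controls after about 10 days on a 0-100 scale (100 = complete control).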

[2] = system: blackgrass (Alopecurus myosuroides); test: Test A postemergence, blackgrass; conditions: visual injury, 0 to 100 scale (0 no effect, 100 complete control), approximately 10 days
Summary of the method: as §1

[3] = system: pigweed (Amaranthus retroflexus); test: Test A postemergence, pigweed; conditions: visual injury, 0 to 100 scale (0 no effect, 100 complete control), approximately 10 days
Summary of the method: as §1

[4] = system: pigweed (Amaranthus retroflexus); test: Test A preemergence, pigweed; conditions: 0 to 100 scale (0 no effect, 100 complete control)
Summary of the method: as §1

[5] = system: foxtail, giant (Setaria faberii); test: Test A postemergence, giant foxtail; conditions: visual injury, 0 to 100 scale (0 no effect, 100 complete control), approximately 10 days
Summary of the method: as §1

[6] = system: barnyardgrass (Echinochloa crus-galli); test: Test A postemergence, barnyardgrass; conditions: visual injury, 0 to 100 scale (0 no effect, 100 complete control), approximately 10 days
Summary of the method: as §1

[7] = system: barnyardgrass (Echinochloa crus-galli); test: Test A preemergence, barnyardgrass; conditions: 0 to 100 scale (0 no effect, 100 complete control)
Summary of the method: as §1

[8] = system: ducksalad (Heteranthera limosa); test: Test B flooded paddy test, ducksalad; conditions: applied to paddy water, visual rating after 13 to 15 days, scale 0 (no effect) to 100 (complete control)
Summary of the method: (§2)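 Pots were flooded to 3 cm above the soil surface at treatment, compound applied directly to the paddy water, and that depth held throughout. Plants were kept in a greenhouse for 13 to 15 days, then visually rated against untreated controls.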

kochia (Kochia scoparia) [9] = test: Test A preemergence, kochia; conditions: 0 to 100 scale (0 no effect, 100 complete control)
Summary of the method: as §1

[10] = system: barnyardgrass (Echinochloa crus-galli); test: Test B flooded paddy test, barnyardgrass; conditions: applied to paddy water, visual rating after 13 to 15 days, scale 0 (no effect) to 100 (complete control)
Summary of the method: as §2

[11] = system: galium (catchweed bedstraw, Galium aparine); test: Test A postemergence, galium; conditions: visual injury, 0 to 100 scale (0 no effect, 100 complete control), approximately 10 days
Summary of the method: as §1

rice (Oryza sativa) = test: Test B flooded paddy test, rice; conditions: applied to paddy water, visual rating after 13 to 15 days, scale 0 (no effect) to 100 (complete control)
Summary of the method: as §2

kochia (Kochia scoparia) [12] = test: Test A postemergence, kochia; conditions: visual injury, 0 to 100 scale (0 no effect, 100 complete control), approximately 10 days
Summary of the method: as §1

[13] = system: ryegrass, Italian (Lolium multiflorum); test: Test A postemergence, Italian ryegrass; conditions: visual injury, 0 to 100 scale (0 no effect, 100 complete control), approximately 10 days
Summary of the method: as §1

corn (Zea mays) = test: Test A postemergence, corn; conditions: visual injury, 0 to 100 scale (0 no effect, 100 complete control), approximately 10 days
Summary of the method: as §1

[14] = system: ragweed (common ragweed, Ambrosia elatior); test: Test A preemergence, ragweed; conditions: 0 to 100 scale (0 no effect, 100 complete control)
Summary of the method: as §1

[15] = system: ryegrass, Italian (Lolium multiflorum); test: Test A preemergence, Italian ryegrass; conditions: 0 to 100 scale (0 no effect, 100 complete control)
Summary of the method: as §1

[16] = system: ragweed (common ragweed, Ambrosia elatior); test: Test A postemergence, ragweed; conditions: visual injury, 0 to 100 scale (0 no effect, 100 complete control), approximately 10 days
Summary of the method: as §1

[17] = system: wheat (Triticum aestivum); test: Test A postemergence, wheat; conditions: visual injury, 0 to 100 scale (0 no effect, 100 complete control), approximately 10 days
Summary of the method: as §1

[18] = system: sedge, umbrella (small-flower umbrella sedge, Cyperus difformis); test: Test B flooded paddy test, umbrella sedge; conditions: applied to paddy water, visual rating after 13 to 15 days, scale 0 (no effect) to 100 (complete control)
Summary of the method: as §2

Row | Structure (SMILES) | Plant response rating, Foxtail, Giant ([1]; 125 g ai/ha) | Plant response rating, Foxtail, Giant ([1]; 500 g ai/ha) | Plant response rating, Blackgrass ([2]; 125 g ai/ha) | Plant response rating, Blackgrass ([2]; 500 g ai/ha) | Plant response rating, Pigweed ([3]; 125 g ai/ha) | Plant response rating, Pigweed ([3]; 500 g ai/ha) | Plant response rating, Pigweed ([4]; 125 g ai/ha) | Plant response rating, Pigweed ([4]; 500 g ai/ha) | Plant response rating, Foxtail, Giant ([5]; 125 g ai/ha) | Plant response rating, Foxtail, Giant ([5]; 500 g ai/ha) | Plant response rating, Barnyardgrass ([6]; 125 g ai/ha) | Plant response rating, Barnyardgrass ([6]; 500 g ai/ha) | Plant response rating, Barnyardgrass ([7]; 125 g ai/ha) | Plant response rating, Barnyardgrass ([7]; 500 g ai/ha) | Plant response rating, Kochia (kochia (Kochia scoparia) [9]; 125 g ai/ha) | Plant response rating, Kochia (kochia (Kochia scoparia) [9]; 500 g ai/ha) | Plant response rating, Galium ([11]; 125 g ai/ha) | Plant response rating, Galium ([11]; 500 g ai/ha) | Plant response rating, Kochia (kochia (Kochia scoparia) [12]; 125 g ai/ha) | Plant response rating, Kochia (kochia (Kochia scoparia) [12]; 500 g ai/ha) | also measured
1 | O=C1NCC(c2cccc(Oc3ccccn3)c2)C1C(=O)Nc1ccccc1Cl (stereo not drawn) [Compound 69] | 0 | 50 | 0 | 0 | 0 | 0 | 0 | 0 | 0 | 30 | 0 | 20 | 0 | 0 | 0 | 0 | 0 | 0 | 0 | 0 | Plant response rating, Ducksalad (Flood) ([8]; 500 g ai/ha): 70; Plant response rating, Barnyardgrass (Flood) ([10]; 500 g ai/ha): 0; Plant response rating, Rice (Flood) (rice (Oryza sativa); 500 g ai/ha): 0; Plant response rating, Ryegrass, Italian ([13]; 125 g ai/ha): 0; Plant response rating, Ryegrass, Italian ([13]; 500 g ai/ha): 0; Plant response rating, Corn (corn (Zea mays); 125 g ai/ha): 0; Plant response rating, Corn (corn (Zea mays); 500 g ai/ha): 0; Plant response rating, Ragweed ([14]; 125 g ai/ha): 0; Plant response rating, Ragweed ([14]; 500 g ai/ha): 0; Plant response rating, Ryegrass, Italian ([15]; 125 g ai/ha): 0; Plant response rating, Ryegrass, Italian ([15]; 500 g ai/ha): 0; Plant response rating, Ragweed ([16]; 125 g ai/ha): 0; Plant response rating, Ragweed ([16]; 500 g ai/ha): 0; Plant response rating, Wheat ([17]; 125 g ai/ha): 0; Plant response rating, Wheat ([17]; 500 g ai/ha): 0; Plant response rating, Sedge, Umbrella (Flood) ([18]; 500 g ai/ha): 0
2 | O=C1NCC(c2cccc(OC(F)(F)C(F)OC(F)(F)F)c2)C1C(=O)Nc1ccccc1F (stereo not drawn) [Compound 40] | 90 | 90 | 0 | 30 | 0 | 0 | 0 | 0 | 40 | 60 | 50 | 40 | 50 | 90 | 0 | 90 | 40 | 40 | 0 | 0 | Plant response rating, Ducksalad (Flood) ([8]; 250 g ai/ha): 70; Plant response rating, Barnyardgrass (Flood) ([10]; 250 g ai/ha): 20; Plant response rating, Rice (Flood) (rice (Oryza sativa); 250 g ai/ha): 0; Plant response rating, Ryegrass, Italian ([13]; 125 g ai/ha): 0; Plant response rating, Ryegrass, Italian ([13]; 500 g ai/ha): 0; Plant response rating, Corn (corn (Zea mays); 125 g ai/ha): 0; Plant response rating, Corn (corn (Zea mays); 500 g ai/ha): 0; Plant response rating, Ragweed ([14]; 125 g ai/ha): 0; Plant response rating, Ragweed ([14]; 500 g ai/ha): 20; Plant response rating, Ryegrass, Italian ([15]; 125 g ai/ha): 0; Plant response rating, Ryegrass, Italian ([15]; 500 g ai/ha): 0; Plant response rating, Ragweed ([16]; 125 g ai/ha): 0; Plant response rating, Ragweed ([16]; 500 g ai/ha): 0; Plant response rating, Wheat ([17]; 125 g ai/ha): 0; Plant response rating, Wheat ([17]; 500 g ai/ha): 20; Plant response rating, Sedge, Umbrella (Flood) ([18]; 250 g ai/ha): 0
3 | C[Si](C)(C)C#Cc1cccc(C2CNC(=O)C2C(=O)Nc2cccc(F)c2F)c1 (stereo not drawn) [Compound 33] | 60 | 80 | 0 | 0 | 0 | 0 | 0 | 0 | 0 | 50 | 0 | 50 | 60 | 80 | 0 | 0 | 0 | 20 | 0 | 40 | Plant response rating, Ducksalad (Flood) ([8]; 250 g ai/ha): 50; Plant response rating, Barnyardgrass (Flood) ([10]; 250 g ai/ha): 0; Plant response rating, Rice (Flood) (rice (Oryza sativa); 250 g ai/ha): 0; Plant response rating, Ryegrass, Italian ([13]; 125 g ai/ha): 0; Plant response rating, Ryegrass, Italian ([13]; 500 g ai/ha): 0; Plant response rating, Corn (corn (Zea mays); 125 g ai/ha): 0; Plant response rating, Corn (corn (Zea mays); 500 g ai/ha): 0; Plant response rating, Ragweed ([14]; 125 g ai/ha): 0; Plant response rating, Ragweed ([14]; 500 g ai/ha): 0; Plant response rating, Ryegrass, Italian ([15]; 125 g ai/ha): 0; Plant response rating, Ryegrass, Italian ([15]; 500 g ai/ha): 0; Plant response rating, Ragweed ([16]; 125 g ai/ha): 0; Plant response rating, Ragweed ([16]; 500 g ai/ha): 0; Plant response rating, Wheat ([17]; 125 g ai/ha): 0; Plant response rating, Wheat ([17]; 500 g ai/ha): 0; Plant response rating, Sedge, Umbrella (Flood) ([18]; 250 g ai/ha): 0
4 | CN1CC(c2cccc(Oc3ccc(C(F)(F)F)cn3)c2)C(C(=O)Nc2cccc(F)c2F)C1=O (single isomer, unassigned) [Compound 44] | 90 | 90 | 30 | 50 | 50 | 80 | 30 | 80 | 70 | 80 | 90 | 90 | 80 | 80 | 0 | 0 | 70 | 80 | 30 | 60 | Plant response rating, Ducksalad (Flood) ([8]; 250 g ai/ha): 90; Plant response rating, Barnyardgrass (Flood) ([10]; 250 g ai/ha): 40; Plant response rating, Rice (Flood) (rice (Oryza sativa); 250 g ai/ha): 0; Plant response rating, Ryegrass, Italian ([13]; 125 g ai/ha): 0; Plant response rating, Ryegrass, Italian ([13]; 500 g ai/ha): 30; Plant response rating, Corn (corn (Zea mays); 125 g ai/ha): 40; Plant response rating, Corn (corn (Zea mays); 500 g ai/ha): 80; Plant response rating, Ragweed ([14]; 125 g ai/ha): 0; Plant response rating, Ragweed ([14]; 500 g ai/ha): 60; Plant response rating, Ryegrass, Italian ([15]; 125 g ai/ha): 30; Plant response rating, Ryegrass, Italian ([15]; 500 g ai/ha): 90; Plant response rating, Ragweed ([16]; 125 g ai/ha): 0; Plant response rating, Ragweed ([16]; 500 g ai/ha): 0; Plant response rating, Wheat ([17]; 125 g ai/ha): 0; Plant response rating, Wheat ([17]; 500 g ai/ha): 50; Plant response rating, Sedge, Umbrella (Flood) ([18]; 250 g ai/ha): 0
5 | O=C1NCC(c2cccc(Oc3ccccn3)c2)C1C(=O)Nc1ccc(F)c(F)c1F (stereo not drawn) [Compound 42] | 80 | 90 | 0 | 0 | 0 | 0 | 0 | 10 | 50 | 70 | 40 | 60 | 40 | 80 | 0 | 0 | 0 | 30 | 0 | 0 | Plant response rating, Ducksalad (Flood) ([8]; 500 g ai/ha): 80; Plant response rating, Barnyardgrass (Flood) ([10]; 500 g ai/ha): 0; Plant response rating, Rice (Flood) (rice (Oryza sativa); 500 g ai/ha): 0; Plant response rating, Ryegrass, Italian ([13]; 125 g ai/ha): 0; Plant response rating, Ryegrass, Italian ([13]; 500 g ai/ha): 0; Plant response rating, Corn (corn (Zea mays); 125 g ai/ha): 0; Plant response rating, Corn (corn (Zea mays); 500 g ai/ha): 0; Plant response rating, Ragweed ([14]; 125 g ai/ha): 0; Plant response rating, Ragweed ([14]; 500 g ai/ha): 0; Plant response rating, Ryegrass, Italian ([15]; 125 g ai/ha): 0; Plant response rating, Ryegrass, Italian ([15]; 500 g ai/ha): 0; Plant response rating, Ragweed ([16]; 125 g ai/ha): 0; Plant response rating, Ragweed ([16]; 500 g ai/ha): 0; Plant response rating, Wheat ([17]; 125 g ai/ha): 0; Plant response rating, Wheat ([17]; 500 g ai/ha): 0; Plant response rating, Sedge, Umbrella (Flood) ([18]; 500 g ai/ha): 0
